Source: patent US11230534B2, “KDM1A inhibitors for the treatment of disease” (Imago Biosciences, Inc., priority 2015, dated 2022)

Tests used:
Type in all cases: physicochemical
[1] = Chemical stability by HPLC purity re-test / degradation; conditions: for Initial Purity: HPLC 1-24 hours post-synthesis
Protocol: Various lots of Example 1 were analyzed by HPLC shortly after synthesis (analysis from 1-24 hours post-synthesis) and re-tested for purity a unit of time later.
Purity analysis was performed on an Agilent HP1100 series system equipped with a diode array detector and using ChemStation software vB.04.03 using one of the methods detailed below: […]

[2] = Storage at elevated temperature and humidity (40° C./75% RH, 25° C./95-97% RH; XRPD, HPLC); conditions: for change of form under temperature and humidity conditions: conclusion; for Storage at 40° C. and 75% RH and 25° C. and 95% RH / exposure to humidity (form, purity): scaled-up salts
Protocol: Example 1 was dissolved in solvent (240 mg in 2.4 mL, 10 volumes) to form stock solutions and then dispensed into vials (400 μL/˜40 mg per vial). The solutions were treated with 1 equivalent of counterions (for hydrochloric acid (HCl), sulfuric acid (H2SO4 or “SO4”), methanesulfonic acid (mesylate or “MSA”), phosphoric acid (H3PO4 or “PHOA”), and L-tartaric acid (TAR), 77 μL for 1M; for fumaric acid (FUA), 154 μL for 0.5M) using stock solutions. The solutions/suspensions were then cooled down to 0° C. at 0.2° C./min and stirred at 0° C. overnight. The resulting solids were analyzed by XRPD and those that were amorphous or poorly crystalline were then matured for 5 days. If after cooling to 0° C. a clear solution or gum was obtained, the mother liquors were removed from the vials, split in two and anti-solvent (MTBE or heptane, 400 μl) added to each of the aliquots. After anti-solvent addition, the samples were matured for 5 days. After maturation, clear solutions and gums were allowed to evaporate at ambient conditions. Suspensions were filtered, air-dried and characterized by XRPD. Any resulting crystalline solids were characterized by high resolution XRPD, 1H NMR, HPLC and one week storage at 40° C. and 75% RH.
Example 1 was dissolved in methyethyl ketone (MEK) or acetonitrile (MeCN) (20 mg in 200 μl, 10 vol) at ambient conditions. The solutions were then heated to 50° C., treated with 1.1 or 2.1 eq of acid and stirred at this temperature for 1 hour. The resulting solutions/suspensions were then cooled down to 5° C. at 0.1° C./min and held overnight. Any solids obtained were analyzed by XRPD and those that were amorphous or poorly crystalline were then matured between 50° C./ambient on an 8-hour cycle. Any clear solutions were left to evaporate slowly at ambient conditions. If the samples evaporated to form gums, these were dissolved in IPA (10 vol, 200 μL) and then matured. Any solutions with gums present were also matured between 50° C./ambient on an 8 hour cycle. Any resulting crystalline solids were characterized by high resolution XRPD, NMR, HPLC, IC (for inorganic counter-ions) and one week storage at 40° C. and 75% RH.
In the first experiment, Example 1 was dissolved in MEK or MeCN (100 mg in 1 mL, 10 vol) at ambient conditions. The solutions were then heated to 50° C., treated with 2.1 eq of p-toluene sulfonic acid monohydrate (1M in THF, 405 μL) and stirred constant temperature for 1 hour. The resulting suspensions were then cooled down to 5° C. at 0.1° C./min overnight. Any solids obtained were analyzed by XRPD and those that were amorphous or weakly crystalline were then matured between 50° C./ambient on an 8-hour cycle for 7 days. Any resulting crystalline solids were characterized by high resolution XRPD, ^1H NMR, HPLC, TGA, DSC and one week storage at 40° C. and 75% RH. […] However, after further maturation to try and improve the crystallinity, both tosylate salts were consistent with pTSA Form 2 by XRPD. […]
(§1) A preliminary polymorphism assessment was carried out on the three most crystalline salt forms, the mono tartrate (TAR Form 1), mono oxalate (OXA Form 1), and bis tosylate (pTSA Form 2). Each salt was treated with the relevant solvent (10 vol, 30 mg in 300 μL) at 25° C. The samples were stirred for 10 minutes and then heated to 50° C. for 1 hour. The resulting suspensions were matured for 24 hours and any resulting solutions were allowed to evaporate slowly. After maturation or evaporation, the solids were filtered and air-dried before analysis by XRPD.
Amorphous bis tosylate was suspended in the solvent system below (30 mg in 150 μl) at ambient conditions. The suspensions were shaken in the maturation chamber between ambient and 50° C. for 19 h (8 h cycles), then allowed to stand at ambient conditions for 10 min. An aliquot of the solid was air dried and analyzed by XRPD and then placed for 1 week at 40° C./75% RH and re-analyzed. […]

[3] = Gravimetric Vapour Sorption (GVS); conditions: for hygroscopicity: conclusion; for GVS water uptake: full cycle, 25° C.
Protocol: Sorption isotherms were obtained using a SMS DVS Intrinsic moisture sorption analyzer, controlled by DVS Intrinsic Control software v1.0.1.2 (or v 1.0.1.3). The sample temperature was maintained at 25° C. by the instrument controls. The humidity was controlled by mixing streams of dry and wet nitrogen, with a total flow rate of 200 mL/min The relative humidity was measured by a calibrated Rotronic probe (dynamic range of 1.0-100% RH), located near the sample. The weight change, (mass relaxation) of the sample as a function of % RH was constantly monitored by the microbalance (accuracy ±0.005 mg).
Typically 5-20 mg of sample was placed in a tared mesh stainless steel basket under ambient conditions. The sample was loaded and unloaded at 40% RH and 25° C. (typical room conditions). A moisture sorption isotherm was performed as outlined below (2 scans giving 1 complete cycle). The standard isotherm was performed at 25° C. at 10% RH intervals over a 0-90% RH range. Data analysis was carried out using Microsoft Excel using DVS Analysis Suite v6.2 (or 6.1 or 6.0).

[4] = Polymorphism assessment (slurry, maturation, evaporation; XRPD); conditions: 10 solvents, maturation 24 hours
Protocol: as §1
Amorphous bis tosylate was suspended in the solvent system below (30 mg in 150 μl) at ambient conditions. The suspensions were shaken in the maturation chamber between ambient and 50° C. for 19 h (8 h cycles), then allowed to stand at ambient conditions for 10 min. An aliquot of the solid was air dried and analyzed by XRPD and then placed for 1 week at 40° C./75% RH and re-analyzed. If solutions were recovered, the solvents were allowed to evaporate at ambient conditions and the residues were initially analyzed by XRPD.
(8 h cycles). After 4 days the solids were filtered and air dried. Solids obtained were initially analyzed by XRPD. Maturation in n-heptane, diethyl ether, ethyl acetate, isopropyl acetate, methylisobutyl ketone, 2-propanol, methylethyl ketone, acetone, tert-butylmethyl ether, cyclohexane, 1,4-dioxane, toluene, chloroform, 1,2-dimethoxyethane, tetrahydrofuran, acetonitrile, nitromethane, and 2-propanol:water 95:5 yielded filtered solids of Form 2.
Supernatants from the maturation experiments and solutions from cooling were allowed to slowly evaporate at ambient conditions. The residues were analyzed by XRPD. Slow evaporation from the following supernatants yielded: dimethyl sulfoxide, oil; water, oil; N,N-dimethylformamide, gum; N-methylpyrrolidone, oil; tetrahydrofuran:water 95:5, gum; and acetone:water 95:5 gum. Solutions obtained after the solubility assessment were placed in a fridge (4° C.) for 2 days and in a freezer (−20° C.) for another 2 days. No solids were recovered. […]

[5] = Variable temperature XRPD (VT-XRPD)
Protocol: Samples run under ambient conditions were prepared as flat plate specimens using powder as received without grinding. Approximately 1-2 mg of the sample was lightly pressed on a glass slide to obtain a flat surface. Samples run under non-ambient conditions were mounted on a silicon wafer with heat-conducting compound. The sample was then heated to the appropriate temperature at 20° C./min and subsequently held isothermally for 1 minute before data collection was initiated.

| Compound | Re-Test Purity ([1]; Lot 1, free base, 49 days between tests) [%] | Initial Purity ([1]; Lot 1, free base) [%] | Re-Test Purity ([1]; Lot 2, free base, 16 days between tests) [%] | Initial Purity ([1]; Lot 2, free base) [%] | stability of free base form ([1]; ambient conditions) | behaviour of free base form at high humidity ([2]; high humidity) | form by XRPD post GVS [3] | hygroscopicity [3] | GVS water uptake [3] [% w/w] | change in crystalline form in polymorphism assessment [4] | loss in purity on storage ([2]; 40° C. and 75% RH) [%] | change of form under temperature and humidity conditions [2] | Storage at 40° C. and 75% RH (form by XRPD) ([2]; one week) | Storage at 40° C. and 75% RH and 25° C. and 95% RH / exposure to humidity (form, purity) [2] | temperature up to which crystalline form is unchanged (VT-XRPD) [5] [°C] | chemical stability relative to free form ([2]; limited stability studies) |
| --- | --- | --- | --- | --- | --- | --- | --- | --- | --- | --- | --- | --- | --- | --- | --- | --- |
| CN1CCN(C(=O)C(CN[C@@H]2C[C@H]2c2ccc(F)cc2)NC(=O)c2ccc(-n3ccnn3)cc2)CC1 (stereo partly drawn) [Example 1, N-[3-[[(1R,2S)-2-(4-Fluorophenyl)cyclopropyl]amino]-1-(4-methylpiperazin-1-yl)-1-oxopropan-2-yl]-4-(1H-1,2,3-triazol-1-yl)benzamide] | 82 | 93 | 72 | 81 | degrades at ambient conditions over time | deliquesces when subjected to high humidity |  |  |  |  |  |  |  |  |  |  |
| O=C(O)C(O)C(O)C(=O)O (stereo not drawn) [tartrate] |  |  |  |  |  |  | decreased crystallinity and a change in form | highly hygroscopic | ~30 | five of the tartrate samples changed in form | > 30 | change under both temperature and humidity conditions | no change in form was observed | changes in crystallinity and form |  |  |
| oxalate |  |  |  |  |  |  | change in form to OXA Form 2 | hygroscopic | ~12 | only one change in form was observed |  | changed form under humidity, but not temperature conditions |  | changed the form of the material to OXA Form 2 | 140 |  |
| tosylate |  |  |  |  |  |  | No change in form was observed |  | ~5 | no change in crystalline form was noted in 9 |  |  |  | no changes in the form or purity | 170 | improved chemical stability over the free form |
